# In patent US20230399342A1 (Incyte Corporation, priority 2022, published 2023):
# What was measured:
# [1] = target: DGKα (Homo sapiens (Human), UniProt P23743); assay: In vitro DGKα inhibition assay (ADP-Glo); format: biochemical; settings: His-tagged human recombinant enzyme, 0.1 nM DGKα, 50 μM ATP, 20 μM DLG, 90 minute incubation
# Procedure, shortened: (§1)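 His-tagged human DGKα (0.1 nM, 50 μM ATP) or DGKζ (0.4 nM, 30 μM ATP), each with 20 μM DLG, in Tris pH 7.5 buffer with CHAPS, Mg2+, Ca2+.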
# [2] = target: DGKζ (Homo sapiens (Human), UniProt Q13574); assay: In vitro DGKζ inhibition assay (ADP-Glo); format: biochemical; settings: His-tagged human recombinant enzyme, 0.4 nM DGK, 30 μM ATP, 20 μM DLG, 90 minute incubation
# Procedure, shortened: as §1
# Chain of DGKα (P23743 whole entry): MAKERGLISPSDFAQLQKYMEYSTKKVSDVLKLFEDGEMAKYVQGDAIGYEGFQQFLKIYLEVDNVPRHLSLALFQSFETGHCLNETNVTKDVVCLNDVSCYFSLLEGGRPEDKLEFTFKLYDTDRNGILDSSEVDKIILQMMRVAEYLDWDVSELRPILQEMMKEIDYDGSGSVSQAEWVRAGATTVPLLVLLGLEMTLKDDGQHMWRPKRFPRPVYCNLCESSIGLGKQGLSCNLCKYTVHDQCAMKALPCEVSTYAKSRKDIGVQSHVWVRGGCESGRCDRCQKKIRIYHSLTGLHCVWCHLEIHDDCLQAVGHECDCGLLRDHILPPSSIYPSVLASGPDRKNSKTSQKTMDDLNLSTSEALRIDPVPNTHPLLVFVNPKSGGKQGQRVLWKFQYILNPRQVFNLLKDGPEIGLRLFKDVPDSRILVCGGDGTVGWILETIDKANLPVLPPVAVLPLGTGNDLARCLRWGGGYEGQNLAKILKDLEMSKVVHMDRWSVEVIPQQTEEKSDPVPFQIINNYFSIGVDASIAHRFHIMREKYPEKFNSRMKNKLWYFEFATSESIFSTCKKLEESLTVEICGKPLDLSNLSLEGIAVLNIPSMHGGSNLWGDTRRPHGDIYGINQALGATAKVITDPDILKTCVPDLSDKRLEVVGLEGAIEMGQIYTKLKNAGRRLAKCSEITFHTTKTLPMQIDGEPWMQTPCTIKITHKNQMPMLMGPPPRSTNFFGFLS
# Chain of DGKζ (Q13574 whole entry): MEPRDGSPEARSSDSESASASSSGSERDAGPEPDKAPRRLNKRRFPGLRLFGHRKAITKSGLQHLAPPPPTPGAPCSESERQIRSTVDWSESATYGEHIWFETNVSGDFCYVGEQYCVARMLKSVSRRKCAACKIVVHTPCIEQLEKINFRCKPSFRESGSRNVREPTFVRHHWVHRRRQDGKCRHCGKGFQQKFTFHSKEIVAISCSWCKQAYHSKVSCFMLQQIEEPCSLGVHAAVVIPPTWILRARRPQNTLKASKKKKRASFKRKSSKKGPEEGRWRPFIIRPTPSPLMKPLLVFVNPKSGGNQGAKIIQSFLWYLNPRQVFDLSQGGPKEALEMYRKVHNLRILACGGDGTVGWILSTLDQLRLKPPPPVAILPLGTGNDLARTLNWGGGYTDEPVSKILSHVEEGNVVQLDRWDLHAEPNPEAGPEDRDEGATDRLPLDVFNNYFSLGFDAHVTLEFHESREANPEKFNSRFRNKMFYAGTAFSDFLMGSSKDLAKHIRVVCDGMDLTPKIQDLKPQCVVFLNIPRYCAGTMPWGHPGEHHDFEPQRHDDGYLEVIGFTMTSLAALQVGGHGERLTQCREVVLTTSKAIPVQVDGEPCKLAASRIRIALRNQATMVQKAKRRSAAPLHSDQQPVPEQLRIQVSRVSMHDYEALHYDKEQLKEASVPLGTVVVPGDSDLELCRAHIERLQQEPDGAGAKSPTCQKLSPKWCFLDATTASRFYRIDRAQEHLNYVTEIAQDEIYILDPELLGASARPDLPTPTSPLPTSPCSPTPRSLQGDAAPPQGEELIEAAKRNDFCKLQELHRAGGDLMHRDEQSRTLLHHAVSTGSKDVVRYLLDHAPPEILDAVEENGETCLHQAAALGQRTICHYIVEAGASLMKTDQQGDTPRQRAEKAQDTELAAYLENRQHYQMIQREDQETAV
IC50 [1] [nM],IC50 [2] [nM],Compound
≤ 20,200 to 2000,"Cc1nnc2nc(N3C[C@@H](C)N(C(c4ccc(F)cc4)c4ccc(F)cc4)C[C@@H]3C)c3ncsc3n12 [Example 2, 4-((2S,5R)-4-(Bis(4-fluorophenyl)methyl)-2,5-dimethylpiperazin-1-yl)-8-methylthiazolo[4,5-e][1,2,4]triazolo[4,3-a]pyrimidine]"
≤ 20,≤ 20,"CC[C@@H]1CN(c2nc3nncn3c3c2nnn3C[C@H]2CCCO2)[C@@H](C)CN1C(c1ccc(F)cc1)c1ccc(F)cc1 [Example 32, 4-((2S,5R)-4-(Bis(4-fluorophenyl)methyl)-5-ethyl-2-methylpiperazin-1-yl)-1-(((R)-tetrahydrofuran-2-yl)methyl)-1H-[1,2,3]triazolo[4,5-e][1,2,4]triazolo[4,3-a]pyrimidine]"
≤ 20,≤ 20,"Cc1nc2c(N3C[C@@H](C)N(C(c4ccc(Br)cc4)C4CC(F)(F)C4)C[C@@H]3C)nc3nncn3c2n1C[C@@H]1CCCO1 (stereo partly drawn) [Example 61, 4-((2S,5R)-4-((4-Bromophenyl)(3,3-difluorocyclobutyl)methyl)-2,5-dimethylpiperazin-1-yl)-2-methyl-1-(((S)-tetrahydrofuran-2-yl)methyl)-1H-[1,2,4]triazolo[3,4-b]purine]"
≤ 20,≤ 20,"Cc1nc2c(N3C[C@@H](C)N(C(c4ccc(C(F)(F)F)cc4)[C@H]4C[C@H](C(F)(F)F)C4)C[C@@H]3C)nc3nncn3c2n1C[C@@H]1CCCO1 (stereo partly drawn) [Example 115, 4-((2S,5R)-2,5-Dimethyl-4-(((trans)-3-(trifluoromethyl)cyclobutyl)(4-(trifluoromethyl)phenyl)methyl)piperazin-1-yl)-2-methyl-1-(((S)-tetrahydrofuran-2-yl)methyl)-1H-[1,2,4]triazolo[3,4-b]purine]"
≤ 20,≤ 20,"CC(C)[C@H](c1ccc(F)cc1)N1C[C@H](C)N(c2nc3nncn3c3c2ncn3CC2CC2)C[C@H]1C [Example 23, 1-(cyclopropylmethyl)-4-((2S,5R)-4-((R)-1-(4-fluorophenyl)-2-methylpropyl)-2,5-dimethylpiperazin-1-yl)-1H-[1,2,4]triazolo[3,4-b]purine]"
≤ 20,≤ 20,"C[C@@H]1CN(c2nc3nncn3c3c2ncn3CCN(C)C)[C@@H](C)CN1[C@H](c1ccc(C(F)(F)F)cc1)c1ccc(C(F)(F)F)cn1 [Example 102, 2-(4-((2S,5R)-2,5-dimethyl-4-((R)-(4-(trifluoromethyl)phenyl)(5-(trifluoromethyl)pyridin-2-yl)methyl)piperazin-1-yl)-1H-[1,2,4]triazolo[3,4-b]purin-1-yl)-N,N-dimethylethan-1-amine]"
≤ 20,> 2000,"Cc1nn(C)c2c1c(N1C[C@@H](C)N(C(c3ccc(F)cc3)c3ccc(F)cc3)C[C@@H]1C)cc1nncn12 [Example 12, 4-((2S,5R)-4-(Bis(4-fluorophenyl)methyl)-2,5-dimethylpiperazin-1-yl)-1,3-dimethyl-1H-pyrazolo[4,3-e][1,2,4]triazolo[4,3-a]pyridine]"
≤ 20,≤ 20,"CC[C@@H]1CN(c2nc3nncn3c3c2nc(C)n3C[C@@H]2CCCO2)[C@@H](C)CN1[C@@H](c1ccc(OC(F)F)cc1)C(C)C [Example 127, 4-((2S,5R)-4-((R)-1-(4-(difluoromethoxy)phenyl)-2-methylpropyl)-5-ethyl-2-methylpiperazin-1-yl)-2-methyl-1-(((S)-tetrahydrofuran-2-yl)methyl)-1H-[1,2,4]triazolo[3,4-b]purine]"
≤ 20,≤ 20,"CC[C@H]1CN(C(c2ccc(F)cc2)c2ccc(F)cc2)[C@H](CC)CN1c1nc2nncn2c2c1ncn2CCN(C)C [Example 35, 2-(4-((2S,5R)-4-(Bis(4-fluorophenyl)methyl)-2,5-diethylpiperazin-1-yl)-1H-[1,2,4]triazolo[3,4-b]purin-1-yl)-N,N-dimethylethan-1-amine]"
≤ 20,≤ 20,"Cc1nc2c(N3C[C@@H](C)N([C@H](c4ccc(OC(F)(F)F)cc4)C(C)C)C[C@@H]3C)nc3nncn3c2n1C[C@@H]1CCCO1 [Example 118, 4-((2S,5R)-2,5-Dimethyl-4-((S)-2-methyl-1-(4-(trifluoromethoxy)phenyl)propyl)piperazin-1-yl)-2-methyl-1-(((S)-tetrahydrofuran-2-yl)methyl)-1H-[1,2,4]triazolo[3,4-b]purine]"
≤ 20,20 to 200,"C[C@@H]1CN(c2nc3nncn3c3scnc23)[C@@H](C)CN1C(c1ccc(F)cc1)c1ccc(F)cc1 [Example 1, 4-((2S,5R)-4-(Bis(4-fluorophenyl)methyl)-2,5-dimethylpiperazin-1-yl)thiazolo[4,5-e][1,2,4]triazolo[4,3-a]pyrimidine]"
≤ 20,≤ 20,"C[C@@H]1CN(c2nc3nncn3c3c2ncn3CCN(C)C)[C@@H](C)CN1[C@@H](c1ccc(C(F)(F)F)cc1)c1ccc(C(F)(F)F)cn1 [Example 101, 2-(4-((2S,5R)-2,5-Dimethyl-4-((S)-(4-(trifluoromethyl)phenyl)(5-(trifluoromethyl)pyridin-2-yl)methyl)piperazin-1-yl)-1H-[1,2,4]triazolo[3,4-b]purin-1-yl)-N,N-dimethylethan-1-amine]"
≤ 20,≤ 20,"Cc1nc2c(N3C[C@@H](C)N(C(c4ccc(C(F)(F)F)c(F)c4)C(C)C)C[C@@H]3C)nc3nncn3c2n1C[C@@H]1CCCO1 (stereo partly drawn) [Example 83, 4-((2S,5R)-4-(1-(3-Fluoro-4-(trifluoromethyl)phenyl)-2-methylpropyl)-2,5-dimethylpiperazin-1-yl)-2-methyl-1-(((S)-tetrahydrofuran-2-yl)methyl)-1H-[1,2,4]triazolo[3,4-b]purine]"
≤ 20,> 2000,"C[C@@H]1CN(c2nc3nncn3c3sc(-c4cn[nH]c4)nc23)[C@@H](C)CN1C(c1ccc(F)cc1)c1ccc(F)cc1 [Example 5, 4-((2S,5R)-4-(Bis(4-fluorophenyl)methyl)-2,5-dimethylpiperazin-1-yl)-2-(1H-pyrazol-4-yl)thiazolo[4,5-e][1,2,4]triazolo[4,3-a]pyrimidine]"
≤ 20,≤ 20,"[2H]c1nc2c(N3C[C@@H](CC)N(C(c4ccc(F)cc4)c4ccc(F)cc4)C[C@@H]3CC)nc3nncn3c2n1CCN(C)C [Example 36, 2-(4-((2S,5R)-4-(Bis(4-fluorophenyl)methyl)-2,5-diethylpiperazin-1-yl)-1H-[1,2,4]triazolo[3,4-b]purin-1-yl-2-d)-N,N-dimethylethan-1-amine]"
≤ 20,≤ 20,"Cc1cc(C(C2CC(F)(F)C2)N2C[C@H](C)N(c3nc4nncn4c4c3nc(C)n4C[C@@H]3CCCO3)C[C@H]2C)ccc1C(F)(F)F (stereo partly drawn) [Example 55, 4-((2S,5R)-4-((3,3-Difluorocyclobutyl)(3-methyl-4-(trifluoromethyl)phenyl)methyl)-2,5-dimethylpiperazin-1-yl)-2-methyl-1-(((S)-tetrahydrofuran-2-yl)methyl)-1H-[1,2,4]triazolo[3,4-b]purine]"
≤ 20,≤ 20,"Cc1nc2c(N3C[C@@H](C)N(C(c4ccc(Cl)cc4)c4ccc(Cl)cc4)C[C@@H]3C)nc3nncn3c2n1C[C@@H]1CCCO1 [Example 105, 4-((2S,5R)-4-(Bis(4-chlorophenyl)methyl)-2,5-dimethylpiperazin-1-yl)-2-methyl-1-(((S)-tetrahydrofuran-2-yl)methyl)-1H-[1,2,4]triazolo[3,4-b]purine]"
≤ 20,≤ 20,"Cc1nc2c(N3C[C@@H](C)N(C(c4ccc(C(F)(F)F)cc4)c4ccc(C(F)(F)F)cc4)C[C@@H]3C)nc3nncn3c2n1C[C@@H]1CCCO1 [Example 134, 4-((2S,5R)-4-(Bis(4-(trifluoromethyl)phenyl)methyl)-2,5-dimethylpiperazin-1-yl)-2-methyl-1-(((S)-tetrahydrofuran-2-yl)methyl)-1H-[1,2,4]triazolo[3,4-b]purine]"
≤ 20,≤ 20,"C[C@@H]1CN(c2nc3nncn3c3c2ncn3CC2CC2)[C@@H](C)CN1C(c1ccc(F)cc1)c1ccc(F)cc1 [Example 18, 4-((2S,5R)-4-(Bis(4-fluorophenyl)methyl)-2,5-dimethylpiperazin-1-yl)-1-(cyclopropylmethyl)-1H-[1,2,4]triazolo[3,4-b]purine]"
≤ 20,≤ 20,"COc1ccc([C@H](c2ccc(C(F)F)cc2)N2C[C@H](C)N(c3nc4nncn4c4c3nc(C)n4C[C@@H]3CCCO3)C[C@H]2C)cc1 [Example 92, 4-((2S,5R)-4-((4-(Difluoromethyl)phenyl)(4-methoxyphenyl)methyl)-2,5-dimethylpiperazin-1-yl)-2-methyl-1-(((S)-tetrahydrofuran-2-yl)methyl)-1H-[1,2,4]triazolo[3,4-b]purine]"
≤ 20,≤ 20,"COc1cccc([C@@H](C(C)C)N2C[C@H](C)N(c3nc4nncn4c4c3nc(C)n4C[C@@H]3CCCO3)C[C@H]2C)c1 [Example 99, 4-((2S,5R)-4-((R)-1-(3-methoxyphenyl)-2-methylpropyl)-2,5-dimethylpiperazin-1-yl)-2-methyl-1-(((S)-tetrahydrofuran-2-yl)methyl)-1H-[1,2,4]triazolo[3,4-b]purine]"
≤ 20,≤ 20,"Cc1nc2c(N3C[C@@H](C)N(C(c4ccc(F)c(Cl)c4)[C@H]4C[C@H](C(F)(F)F)C4)C[C@@H]3C)nc3nncn3c2n1C[C@@H]1CCCO1 (stereo partly drawn) [Example 113, 4-((2S,5R)-4-((3-Chloro-4-fluorophenyl)((trans)-3-(trifluoromethyl)cyclobutyl)methyl)-2,5-dimethylpiperazin-1-yl)-2-methyl-1-(((S)-tetrahydrofuran-2-yl)methyl)-1H-[1,2,4]triazolo[3,4-b]purine]"
